What all share (type): in vivo
For assay [1], the system named is black nightshade (Solanum nigrum L.). In words: Test Example 26: pot, soil treatment, metobromuron + prosulfocarb. The following applies: soil, read-out: Growth inhibition rate of black nightshade (%) Measured value. The text has this: (§1) When the herbicidal activity in a case where two active ingredients are combined, is larger than the simple sum of the respective herbicidal activities of the two active ingredients (the expected activity), it is called a synergistic effect. The activity expected by the combination of two active ingredients can be calculated as follows (Colby S. R., “Weed”, vol. 15, p. 20-22, 1967). E=α+β−(α×β[…]) where α: growth inhibition rate when treated with x (g/ha) of herbicide X, • β: growth inhibition rate when treated with y (g/ha) of herbicide Y, • E: growth inhibition rate expected when treated with x (g/ha) of herbicide X and y (g/ha) of herbicide Y.
(§2) On the 19th day after treatment, the state of growth of barnyardgrass was visually observed and evaluated in accordance with the following standards. The growth inhibition rate (%) [measured value] and the growth inhibition rate (%) [calculated value] calculated by the Colby's method, are shown in Table 2.
(§3) Growth inhibition rate (%)=inhibition rate) (%) of 0 (equivalent to the non-treated area) to 100 (complete kill)
(§4) Soil was put into a 1/300,000 ha pot, and seeds of black nightshade (Solanum nigrum L.) were sown. On the day after seeding, predetermined amounts of SC containing metobromuron as active ingredient (same as in Test Example 1) and EC containing prosulfocarb as active ingredient (trade name: BOXER NYUZAI, manufactured by Syngenta) were diluted with water corresponding to 1,000 L per hectare and applied for soil treatment.
(§5) On the 21st day after treatment, the state of growth of black nightshade was visually observed and evaluated in the same manner as in Test Example 1.

Assay [2] has as its system Nepalese Smartweed (Persicaria nepalensis (Meisn.) H. Gross). As to the kind of experiment: Test Example 3: soybean field, soil treatment, metobromuron + S-metolachlor. The note with it: soil, read-out: Growth inhibition rate of Nepalese Smartweed (%) Measured value.
Source text: as §1, §2
(§6) Growth inhibition rate (%)=inhibition rate) (%) of 0 (equivalent to the non-treated area) to 100 (complete kill) […]
On the 50th day after treatment, the state of growth of Nepalese Smartweed (Persicaria nepalensis (Meisn.) H. Gross) which occurred naturally, was visually observed and evaluated in the same manner as in Test Example 1.

Assay [3] concerns large crabgrass (Diqitaria sanquinalis L.). As to the kind of experiment: Test Example 22: pot, soil treatment, metobromuron + prometryn. The following applies: Digitaria sanguinalis, soil, read-out: Growth inhibition rate of large crabgrass (%) Measured value.
Source text: as §1, §2, §3
Soil was put into a 1/300,000 ha pot, and seeds of barnyardgrass (Echinochloa crus-qalli L.) were sown. On the day after seeding, predetermined amounts of SC containing metobromuron as active ingredient (same as in Test Example 1) and WP containing prometryn as active ingredient (trade name: Gesagard 50, manufactured by Nippon Kayaku Co., Ltd.) were diluted with water corresponding to 1,000 L per hectare and applied for soil treatment.
On the 21st day after treatment, the state of growth of barnyardgrass was visually observed and evaluated in the same manner as in Test Example 1.
The test was carried out in the same manner as in Test Example 21 except that barnyardgrass (Echinochloa crus-qalli L.) was changed to large crabgrass (Diqitaria sanquinalis L.), to obtain the results as shown in Table 23.

The subject of assay [4] is common lambsquarters (Chenopodium album L.). As to the kind of experiment: Test Example 20: pot, soil treatment, metobromuron + chlorpropham. The note with it: soil, read-out: Growth inhibition rate of common lambsquarters (%) Measured value.
Source text: as §1, §2, §3
Soil was put into a 1/300,000 ha pot, and seeds of barnyardgrass (Echinochloa crus-galli L.) were sown. On the day after seeding, predetermined amounts of SC containing metobromuron as active ingredient (same as in Test Example 1) and EC containing chlorpropham as active ingredient (same as in Test Example 1) were diluted with water corresponding to 1,000 L per hectare and applied for soil treatment.
On the 26th day after treatment, the state of growth of barnyardgrass was visually observed and evaluated in the same manner as in Test Example 1.
The test was carried out in the same manner as in Test Example 18 except that barnyardgrass (Echinochloa crus-galli L.) was changed to common lambsquarters (Chenopodium album L.), to obtain the results as shown in Table 21.

Assay [5] deals with spotted knotweed (Polygonum lapathifolium L.). In words: Test Example 2: soybean field, soil treatment, metobromuron + S-metolachlor. The following applies: Persicaria lapathifolia, soil, read-out: Growth inhibition rate of spotted knotweed (%) Measured value.
Source text: as §1, §2, §6
On the 50th day after treatment, the state of growth of spotted knotweed was visually observed and evaluated in the same manner as in Test Example 1.

In assay [6] the test system is black nightshade (Solanum nigrum L.). In words: Test Example 27: pot, soil treatment, metobromuron + flufenacet. The note with it: soil, read-out: Growth inhibition rate of black nightshade (%) Measured value.
Source text: as §1, §2, §3, §4, §5
The test was carried out in the same manner as in Test Example 26 except that EC containing prosulfocarb as active ingredient was changed to SC containing flufenacet as active ingredient (trade name: Cadou, manufactured by Bayer CropScience), to obtain the results as shown in Table 28.

The test system is the same in assay [7]. In words: Test Example 23: pot, soil treatment, metobromuron + fluazifop-P-butyl. The note with it: Solanum nigrum, soil, read-out: Growth inhibition rate of black nightshade (%) Measured value.
Source text: as §1, §2, §3
Soil was put into a 1/300,000 ha pot, and seeds of black nightshade (Solanum nigrum L.) were sown. […]
On the 20th day after treatment, the state of growth of black nightshade was visually observed and evaluated in the same manner as in Test Example 1.

Assay [8] relates to large crabgrass (Digitaria sanquinalis L.). As to the kind of experiment: Test Example 28: pot, soil treatment, metobromuron + pendimethalin. The following applies: soil, read-out: Growth inhibition rate of large crabgrass (%) Measured value.
Source text: as §1, §2, §3
Soil was put into a 1/300,000 ha pot, and seeds of large crabgrass (Digitaria sanquinalis L.) were sown. On the day after seeding, predetermined amounts of SC containing metobromuron as active ingredient (same as in Test Example 1) and EC containing pendimethalin as active ingredient (same as in Test Example 10) were diluted with water corresponding to 1,000 L per hectare and applied for soil treatment.
On the 27th day after treatment, the state of growth of large crabgrass was visually observed and evaluated in the same manner as in Test Example 1.

As to `CON(C)C(=O)Nc1ccc(Br)cc1` [Metobromuron, 3-(4-bromophenyl)-1-methoxy-1-methylurea], in assay [1], the inhibition (usually the relative decrease from the control value, in per cent) at 250 g/ha worked out at 25%; the inhibition at 375 g/ha came to 50%; the inhibition at 562.5 g/ha was 68%. For the same compound, the inhibition at 1500 g/ha in assay [2] worked out at 30%. Also, in assay [3], the inhibition at 750 g/ha came out at 33% and the inhibition at 1000 g/ha amounted to 50%. The inhibition at 188 g/ha in assay [4] stood at 50%. Further, the inhibition at 1000 g/ha in assay [5] came to 58%. Further, in assay [6], the inhibition at 250 g/ha was 25%, the inhibition at 375 g/ha amounted to 50% and the inhibition at 562.5 g/ha is 68%. For the same compound, in assay [7], the inhibition at 750 g/ha worked out at 85%. For the same compound, in assay [8], the inhibition at 62.5 g/ha was 0%, the inhibition at 125 g/ha came to 15% and the inhibition at 250 g/ha worked out at 35%.

(Values after US9993001B2, “Herbicidal composition” (ISHIHARA SANGYO KAISHA, LTD., priority 2014, dated 2018).)
